Counter-ions that a name gives are not always drawn.
Assay: in vivo
Set-up: species or system mice
Settings: mouse, 100 mg/kg; for Bio-availability / AUC / Plasma level of non-ester 2 hr: 120 min; for Plasma level of non-ester 0.25 hr / Plasma level of non-ester 0.5 hr / Plasma level of non-ester 1 hr / AUC / Plasma level of non-ester 2 hr: po; for Plasma level of non-ester 0.25 hr: 15 min; for Plasma level of non-ester 0.5 hr: 30 min; for Plasma level of non-ester 1 hr: 60 min
Experimental: The compounds produced according to the Examples (Compound Nos. 2, 4, 6 and 8) and, as a reference control, pivaloyloxymethyl ester of compound (II) (hereinafter referred to as Compound A) are orally administered to mice at a common dose level of 100 mg/kg (as the non-ester, i.e. compound (II) per mouse). After administration, the plasma concentrations of compound (II) at 0.25, 0.5, 1.0 and 2.0 hours are determined by the cup assay method (using Proteus mirabilis Eb 313 as the test organism) and the area under plasma concentration- time curve (AUC) over 0 to 2 hours is calculated.
As a control, compound (II) is subcutaneously administered to mice at the same dose and the AUC is similarly calculated.

Structure (SMILES)	Bio-availability	Plasma level of non-ester 0.25 hr	Plasma level of non-ester 0.5 hr	Plasma level of non-ester 1 hr	AUC	Plasma level of non-ester 2 hr	AUC at 2 h (sc)	concentration at 0.25 h (sc)	concentration at 0.5 h (sc)	concentration at 1 h (sc)	concentration at 2 h (sc)	Bio-availability (sc)
CN(C)CCn1nnnc1SCC1=C(C(=O)OCOC(=O)C(C)(C)C)N2C(=O)[C@@H](NC(=O)Cc3csc(N)n3)[C@H]2SC1 [Compound A, pivaloyloxymethyl ester of compound (II), reference compound]	41.8	21000 ng/mL	16200 ng/mL	6100 ng/mL	16200 ng·h/mL	600 ng/mL						
CC(OC(=O)CC1CCCC1)OC(=O)C1=C(CSc2nnnn2CCN(C)C)CS[C@@H]2[C@H](NC(=O)Cc3csc(N)n3)C(=O)N12 (stereo partly drawn) [Compound No. 6, 1-(Cyclopentylacetoxy)ethyl 7β-[2-(2-aminothiazol-4-yl)acetamido]-3-[[[1-(2-dimethylaminoethyl)-1H-tetrazol-5-yl]thio]methyl] ceph-3-em-4-carboxylate dihydrochloride]	82.2	23200 ng/mL	27200 ng/mL	16900 ng/mL	31900 ng·h/mL	6460 ng/mL						
CC(OC(=O)CC1CCCCC1)OC(=O)C1=C(CSc2nnnn2CCN(C)C)CS[C@@H]2[C@H](NC(=O)Cc3csc(N)n3)C(=O)N12 (stereo partly drawn) [Compound No. 2, 1-(Cyclohexylacetoxy)ethyl 7β-[2-(2-aminothiazol-4-yl)acetamido]-3-[[[1-(2-dimethylaminoethyl)-1H-tetrazol-5-yl]thio]methyl] ceph-3-em-4-carboxylate dihydrochloride]	107.7	43900 ng/mL	45200 ng/mL	16400 ng/mL	41800 ng·h/mL	3100 ng/mL						

More lines, now with the values ahead:

Bio-availability	Plasma level of non-ester 0.25 hr	Plasma level of non-ester 0.5 hr	Plasma level of non-ester 1 hr	AUC	Plasma level of non-ester 2 hr	AUC at 2 h (sc)	concentration at 0.25 h (sc)	concentration at 0.5 h (sc)	concentration at 1 h (sc)	concentration at 2 h (sc)	Bio-availability (sc)	Structure (SMILES)
78.3	42500 ng/mL	29900 ng/mL	10500 ng/mL	30400 ng·h/mL	1350 ng/mL							CC(OC(=O)C1=C(CSc2nnnn2CCN(C)C)CS[C@@H]2[C@H](NC(=O)Cc3csc(N)n3)C(=O)N12)OC(=O)C1CCCC1 (stereo partly drawn) [Compound No. 8, 1-(Cyclopentanecarbonyloxy)ethyl 7β-[2-(2-aminothiazol-4-yl)acetamido]-3-[[[1-(2-dimethylaminoethyl)-1H-tetrazol-5-yl]thio]methyl] ceph-3-em-4-carboxylate dihydrochloride]
						38800 ng·h/mL	69200 ng/mL	29000 ng/mL	13200 ng/mL	1500 ng/mL	100	CN(C)CCn1nnnc1SCC1=C(C(=O)O)N2C(=O)[C@@H](NC(=O)Cc3csc(N)n3)[C@H]2SC1 [compound (II), 7S-[2-(2-aminothiazol-4-yl)-acetamido]-3-[[[1-(2-dimethylaminoethyl)-1H-tetrazol-5-yl]thio]methyl]ceph-3-em-4-carboxylic acid, reference compound]
76.2	43600 ng/mL	31700 ng/mL	8380 ng/mL	29600 ng·h/mL	1010 ng/mL							CC(OC(=O)C1=C(CSc2nnnn2CCN(C)C)CS[C@@H]2[C@H](NC(=O)Cc3csc(N)n3)C(=O)N12)OC(=O)C1CCCCC1 (stereo partly drawn) [Compound No. 4, 1-(Cyclohexanecarbonyloxy)ethyl 7β-[2-(2-amino-thiazol-4-yl)acetamido]-3-[[[1-(2-dimethylaminoethyl)-1H-tetrazol-5-yl]thio]methyl] ceph-3-em-4-carboxylate dihydrochloride]
